Measured values: patent US9439903B2, “Process for the preparation of amorphous imatinib mesylate” (CADILA HEALTHCARE LIMITED, priority 2012, dated 2016)
Counter-ions that a name gives are not always drawn.

What was measured:
Type in all cases: physicochemical
[1] = Hygroscopicity as per Ph. Eur. general chapter 5.11
From the text: In one general aspect, the amorphous imatinib mesylate was subjected to study the hygroscopicity as per the Ph. Eur. general chapter 5.11.

[2] = Stability of amorphous imatinib mesylate, real time storage 25° C./60% RH; conditions: 25° C. ± 2° C./60% ± 5% RH (Real time)
Protocol: (§1) The amorphous imatinib mesylate having less than 2.0% water, in particular, having less than 1.7% water, more particularly, water content is in the range of 0.7% to 1.7% as manufactured by the process of the present invention was subjected to stability for at least 6 months at 25° C./60% RH or at about 40° C./75% RH. The following Table-1 and Tabel-2 discloses the stability conditions and results.

[3] = Stability of amorphous imatinib mesylate, accelerated storage 40° C./75% RH; conditions: 40° C. ± 2° C./75% ± 5% RH (Accelerated)
Protocol: as §1

Cc1ccc(NC(=O)c2ccc(CN3CCN(C)CC3)cc2)cc1Nc1nccc(-c2cccnc2)n1 [amorphous imatinib mesylate, Imatinib mesylate]
hygroscopicity [1]: very hygroscopic
Description ([2]; 1 Month): Pale yellow
Related substance (%) by HPLC: Impurity-AMPPP ([2]; 1 Month): BQL
Related substance (%) by HPLC: Impurity-MPMBA ([2]; 1 Month): BQL
Related substance (%) by HPLC: Impurity-Methyl Ester analouge ([2]; 1 Month): BQL
Related substance (%) by HPLC: Impurity-NMPPP ([2]; 1 Month): BQL
Related substance (%) by HPLC: Single largest unknown Imp ([2]; 1 Month): 0.03%
Related substance (%) by HPLC: Total Impurities ([2]; 1 Month): 0.04%
Water (%) ([2]; 1 Month): 0.72%
X-Ray Diffraction ([2]; 1 Month): Amorphous
Description ([2]; 2 Months): Pale yellow
Related substance (%) by HPLC: Impurity-AMPPP ([2]; 2 Months): BQL
Related substance (%) by HPLC: Impurity-MPMBA ([2]; 2 Months): BQL
Related substance (%) by HPLC: Impurity-Methyl Ester analouge ([2]; 2 Months): BQL
Related substance (%) by HPLC: Impurity-NMPPP ([2]; 2 Months): BQL
Related substance (%) by HPLC: Single largest unknown Imp ([2]; 2 Months): 0.03%
Related substance (%) by HPLC: Total Impurities ([2]; 2 Months): 0.04%
Water (%) ([2]; 2 Months): 0.64%
X-Ray Diffraction ([2]; 2 Months): Amorphous
Description ([2]; 3 Months): Pale yellow
Related substance (%) by HPLC: Impurity-AMPPP ([2]; 3 Months): BQL
Related substance (%) by HPLC: Impurity-MPMBA ([2]; 3 Months): BQL
Related substance (%) by HPLC: Impurity-Methyl Ester analouge ([2]; 3 Months): BQL
Related substance (%) by HPLC: Impurity-NMPPP ([2]; 3 Months): BQL
Related substance (%) by HPLC: Single largest unknown Imp ([2]; 3 Months): 0.03%
Related substance (%) by HPLC: Total Impurities ([2]; 3 Months): 0.05%
Water (%) ([2]; 3 Months): 0.65%
X-Ray Diffraction ([2]; 3 Months): Amorphous
Description ([2]; 6 Months): Pale yellow
Related substance (%) by HPLC: Impurity-AMPPP ([2]; 6 Months): BQL
Related substance (%) by HPLC: Impurity-MPMBA ([2]; 6 Months): BQL
Related substance (%) by HPLC: Impurity-Methyl Ester analouge ([2]; 6 Months): BQL
Related substance (%) by HPLC: Impurity-NMPPP ([2]; 6 Months): BQL
Related substance (%) by HPLC: Single largest unknown Imp ([2]; 6 Months): 0.03%
Related substance (%) by HPLC: Total Impurities ([2]; 6 Months): 0.06%
Water (%) ([2]; 6 Months): 0.69%
X-Ray Diffraction ([2]; 6 Months): Amorphous
Description ([3]; 1 Month): Pale yellow
Related substance (%) by HPLC: Impurity-AMPPP ([3]; 1 Month): BQL
Related substance (%) by HPLC: Impurity-MPMBA ([3]; 1 Month): BQL
Related substance (%) by HPLC: Impurity-Methyl Ester analouge ([3]; 1 Month): BQL
Related substance (%) by HPLC: Impurity-NMPPP ([3]; 1 Month): BQL
Related substance (%) by HPLC: Single largest unknown Imp ([3]; 1 Month): 0.03%
Related substance (%) by HPLC: Total Impurities ([3]; 1 Month): 0.04%
Water (%) ([3]; 1 Month): 0.88%
X-Ray Diffraction ([3]; 1 Month): Amorphous
Description ([3]; 2 Month): Pale yellow
Related substance (%) by HPLC: Impurity-AMPPP ([3]; 2 Month): BQL
Related substance (%) by HPLC: Impurity-MPMBA ([3]; 2 Month): BQL
Related substance (%) by HPLC: Impurity-Methyl Ester analouge ([3]; 2 Month): BQL
Related substance (%) by HPLC: Impurity-NMPPP ([3]; 2 Month): BQL
Related substance (%) by HPLC: Single largest unknown Imp ([3]; 2 Month): 0.03%
Related substance (%) by HPLC: Total Impurities ([3]; 2 Month): 0.05%
Water (%) ([3]; 2 Month): 0.89%
X-Ray Diffraction ([3]; 2 Month): Amorphous
Description ([3]; 3 Month): Pale yellow
Related substance (%) by HPLC: Impurity-AMPPP ([3]; 3 Month): BQL
Related substance (%) by HPLC: Impurity-MPMBA ([3]; 3 Month): BQL
Related substance (%) by HPLC: Impurity-Methyl Ester analouge ([3]; 3 Month): BQL
Related substance (%) by HPLC: Impurity-NMPPP ([3]; 3 Month): BQL
Related substance (%) by HPLC: Single largest unknown Imp ([3]; 3 Month): 0.03%
Related substance (%) by HPLC: Total Impurities ([3]; 3 Month): 0.07%
Water (%) ([3]; 3 Month): 0.79%
X-Ray Diffraction ([3]; 3 Month): Amorphous
Description ([3]; 6 Month): Pale yellow
Related substance (%) by HPLC: Impurity-AMPPP ([3]; 6 Month): BQL
Related substance (%) by HPLC: Impurity-MPMBA ([3]; 6 Month): BQL
Related substance (%) by HPLC: Impurity-Methyl Ester analouge ([3]; 6 Month): BQL
Related substance (%) by HPLC: Impurity-NMPPP ([3]; 6 Month): BQL
Related substance (%) by HPLC: Single largest unknown Imp ([3]; 6 Month): 0.03%
Related substance (%) by HPLC: Total Impurities ([3]; 6 Month): 0.07%
Water (%) ([3]; 6 Month): 0.95%
X-Ray Diffraction ([3]; 6 Month): Amorphous
